Tests used:
Format in all cases: cell-based, human
48 bp Col2a1 enhancer = 48 bp Col2a1 enhancer luciferase reporter transfection assay in SW1353 cells; details: for effect on Sox9 activity / responsiveness of SW1353 cells transfected with the 48 bp Col2a1 enhancer: concentration not given, data not shown; for reduction of enhancer driven luciferase expression: 10 ng/ml; for relief of cytokine mediated inhibition of enhancer expression by co-treatment: co-treatment with TNFα or IL-1β, SW1353 cells
Method: Reagents were obtained from Invitrogen unless otherwise noted. SW1353 human chondrosarcoma cells (ATCC #HTB-94) were grown in DMEM 10% FBS 10 ug/ml Gentamicin and passaged (2 times a week) using with 0.25% Trypsin-EDTA.
Cells were plated at ˜10^6 cells per flask into a T-75 in 10 ml growth media or an equivalent based on culture vessel surface area, 24 hours prior to transfection. For each transfection, 24 ul of Transit (PanVera) was diluted into 250 ul OptiMEM and 12 ug of reporter plasmid Col2a1 enhancer construct (48 bp Col2a1, was added. After 15-30 minute incubation, growth media was removed from the cells, and the DNA-transfection reagent complexes diluted to a final volume of 10 ml with OptiMEM and added to the cells. Transfection media was replaced with fresh media after 7 hours. 24 hours post transfection the cells were treated with media alone or indicated factors. Cells were harvested 48 hours post-transfection and luciferase activity measured using the LucLite and the TopCount LSC plate reader (Packard).
We analyzed the activity of the 48 bp Col2a1 enhancer construct (48 bp Col2a1) in transfected SW1353 cells. SW1353 cells were transfected with a constant amount of reporter (0.25 ug), with or without increasing amounts of the Sox9 expression construct or empty vector.

matrix metalloproteases = test: Stimulation of matrix metalloprotease expression in SW1353 cells; details: data not shown
IL-8 = test: Induction of IL-8 expression in SW1353 cells; details: for stimulation of expression of IL-8: 10 ng/ml
Method: SW1353 cells were transfected with the 48 bp Col2a1 reporter and then treated with vehicle, TNFα (10 ng/ml) or IL-1β (10 ng/ml) (FIG. 2A).
The effect of increasing IL-1β doses on the two response was determined. […] Therefore, SW1353 cells appear to respond to a dynamic range of IL-1β levels with selective functional responses, making them potentially useful in models of both osteoarthritis and rheumatoid diseases.

Sox9 mRNA = Sox9 mRNA expression in SW1353 cells by real time quantitative PCR (TaqMan); details: 48 hours, relative to GAPDH
Method: RNA was prepared from 75 cm dishes using RNeasy Kits with DNAse treatment (Qiagen) according to the manufacturer's protocol except a second application of DNase was used. cDNA was prepared from 10-20 ul of RNA (1-4 ug) using random hexamer primers and PE Biosystems Reverse Transcription reagents. Taqman reactions used 8 ul cDNA and 2× PE Universal PCR Master Mix (PE Biosystems), 900 nM PCR primers and 200 nM FAM-TAMRA probe. Reactions (50 ul) were cycled and quantified using the PE 5700 with standard conditions for 45 cycles. The data was analyzed using GeneAmp5700 software Mix (PE Biosystems), adjusting the threshold to linear range for all samples. The ΔCt is calculated by subtracting normalizer (GAPDH) from corresponding gene-specific values. The ΔΔCt is calculated by subtracting treated ΔCt from control ΔCt. Fold induction is determined by calculating 2^ΔΔCt. Data is reported as % increase over control sample.
The effect of chondrocyte growth factors as well as inhibitory cytokines on the expression of Sox9 RNA in SW1353 cells using real time quantitative PCR (TaqMan, P E Applied Biosystems) was determined. Cells were cultured and treated with growth factors or cytokines as described above. After 48 hours cells were harvested and RNA prepared. A custom Sox9 primer probe set was validated by an efficiency plot over several logs and relative Sox 9 expression was quantified relative to GAPDH.

“TGFα: growth factor to which SW1353 cells appear unresponsive” was tested, and the “effect on Sox9 activity / responsiveness of SW1353 cells transfected with the 48 bp Col2a1 enhancer” value (“effect on Sox9 activity / responsiveness” for short) (48 bp Col2a1 enhancer) was “unresponsive”.

With IL-1β: pro-inflammatory cytokine the “stimulation of expression of matrix metalloproteases” value (matrix metalloproteases) was “stimulate”, the “stimulation of expression of IL-8” value (IL-8) was “stimulate” and the “induction of IL-8” value (IL-8; IL-1 concentrations below 20 pg/ml) was “not detected”. For the same molecule, the “decrease in Sox9 expression” value (Sox9 mRNA) was 60%, the “reduction of enhancer driven luciferase expression” value (48 bp Col2a1 enhancer; transfected SW1353 cells) was roughly 50% and the “stimulation of Col2 enhancer activity at very low levels” value (48 bp Col2a1 enhancer; 0.1-1 pg/ml, transfected SW1353 cells) was “about 150%”. The “concentration giving maximal inhibition (repression) of Col2 enhancer activity” value (48 bp Col2a1 enhancer; transfected SW1353 cells) was 20 pg/mL.

“FGF-1: pro-chondrogenic fibroblast growth factor” was tested, and the “increase in expression of Sox9 mRNA” value (Sox9 mRNA) was roughly 2 fold and the “relief of cytokine mediated inhibition of enhancer expression by co-treatment” value (48 bp Col2a1 enhancer) was “partially relieved”.

With “PTHrP: parathyroid hormone-related peptide” the “effect on Sox9 activity / responsiveness” value (48 bp Col2a1 enhancer) was “not seen an effect”.

TNFα was tested, and the “stimulation of expression of matrix metalloproteases” value (matrix metalloproteases) was “stimulate”, the “stimulation of expression of IL-8” value (IL-8) was “stimulate” and the “decrease in Sox9 expression” value (Sox9 mRNA) was 45%. The “reduction of enhancer driven luciferase expression” value (48 bp Col2a1 enhancer; transfected SW1353 cells) was “approximately 60%”.

In the case of “FGF-2: pro-chondrogenic fibroblast growth factor”, the “increase in expression of Sox9 mRNA” value (Sox9 mRNA) is reported as “approximately 1.5 fold” and the “relief of cytokine mediated inhibition of enhancer expression by co-treatment” value (48 bp Col2a1 enhancer) is reported as “partially relieved”.

B1: BMP-4: BMP growth factor (protein, UniProt P12644 293-408, looked up)
Bone morphogenetic protein 4: SPKHHSQRARKKNKNCRRHSLYVDFSDVGWNDWIVAPPGYQAFYCHGDCPFPLADHLNSTNHAIVQTLVNSVNSSIPKACCVPTELSAISMLYLDEYDKVVLKNYQEMVVEGCGCR
B1 was tested, and the “effect on Sox9 activity / responsiveness” value (48 bp Col2a1 enhancer) was “unresponsive”.

B2: BMP-6: BMP growth factor (protein, UniProt P22004 375-513, looked up)
Bone morphogenetic protein 6: SASSRRRQQSRNRSTQSQDVARVSSASDYNSSELKTACRKHELYVSFQDLGWQDWIIAPKGYAANYCDGECSFPLNAHMNATNHAIVQTLVHLMNPEYVPKPCCAPTKLNAISVLYFDDNSNVILKKYRNMVVRACGCH
In the case of B2, the “effect on Sox9 activity / responsiveness” value (48 bp Col2a1 enhancer) is reported as “unresponsive”.

B3: FGF-7: fibroblast growth factor which signals exclusively through the epithelial-cell restricted FGFRIIIb receptor (protein, UniProt P21781 32-194, looked up)
Fibroblast growth factor 7: CNDMTPEQMATNVNCSSPERHTRSYDYMEGGDIRVRRLFCRTQWYLRIDKRGKVKGTQEMKNNYNIMEIRTVAVGIVAIKGVESEFYLAMNKEGKLYAKKECNEDCNFKELILENHYNTYASAKWTHNGGEMFVALNQKGIPVRGKKTKKEQKTAHFLPMAIT
B3 was tested, and the “increase in expression of the 48 bp Col2a1 enhancer” value (48 bp Col2a1 enhancer; 200 ng/ml added to transfected SW1353 cultures) was “no effect”.

Source: US20040241755A1, “Human cell assay to determine effect of sample compounds on Col2 enhancer expression” (Pfizer Inc., priority 2003, published 2004)
